Tests used:
[1] = biological target: T1, Neutrophil elastase (Homo sapiens) (UniProt P08246); assay: Compound was evaluated for inhibitory activity against human leukocyte elastase
T1 sequence (whole entry): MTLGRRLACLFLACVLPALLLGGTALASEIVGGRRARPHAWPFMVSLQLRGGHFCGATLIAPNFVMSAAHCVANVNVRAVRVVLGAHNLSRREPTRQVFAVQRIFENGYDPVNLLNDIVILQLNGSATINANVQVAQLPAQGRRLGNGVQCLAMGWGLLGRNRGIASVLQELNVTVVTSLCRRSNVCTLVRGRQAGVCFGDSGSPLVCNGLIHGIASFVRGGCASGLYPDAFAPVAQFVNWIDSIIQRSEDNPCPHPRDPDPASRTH

[2] = biological target: T2, Cathepsin G (Homo sapiens) (UniProt P08311); assay: Compound was evaluated for inhibitory activity towards Cathepsin G
T2 sequence (whole entry): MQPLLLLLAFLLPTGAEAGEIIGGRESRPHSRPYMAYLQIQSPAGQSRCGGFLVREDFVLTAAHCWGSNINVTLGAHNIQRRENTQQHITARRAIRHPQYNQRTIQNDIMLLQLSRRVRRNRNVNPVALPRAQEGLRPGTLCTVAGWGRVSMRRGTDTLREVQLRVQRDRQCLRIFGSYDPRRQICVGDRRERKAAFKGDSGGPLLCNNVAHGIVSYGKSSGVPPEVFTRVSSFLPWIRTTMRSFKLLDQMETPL

[3] = biological target: T3, Myeloblastin (Homo sapiens) (UniProt P24158); assay: Compound was evaluated for inhibitory activity against Proteinase 3
T3 sequence (whole entry): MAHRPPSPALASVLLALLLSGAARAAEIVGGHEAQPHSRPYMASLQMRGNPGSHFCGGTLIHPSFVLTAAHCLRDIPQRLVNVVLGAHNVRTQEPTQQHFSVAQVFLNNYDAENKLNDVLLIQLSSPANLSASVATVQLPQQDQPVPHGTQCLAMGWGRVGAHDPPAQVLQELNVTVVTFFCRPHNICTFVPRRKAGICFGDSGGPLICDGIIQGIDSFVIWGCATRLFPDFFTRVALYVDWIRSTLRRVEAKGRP

| Structure (SMILES) | K inact/Ki [1] [M⁻¹ s⁻¹] | K inact/Ki [2] [M⁻¹ s⁻¹] | K inact/Ki [3] [M⁻¹ s⁻¹] |
| --- | --- | --- | --- |
| CC(C)CC1CS(=O)(=O)N(COP(=O)(OCc2ccccc2)OCc2ccccc2)C1=O (centres undefined) | 95000 | – | – |
| CCCCOP(=O)(OCCCC)OCN1C(=O)C(CC(C)C)N(CC2C=CC=C2)S1(=O)=O (centres undefined) | 2.5e+06 | – | – |
| CC(C)CC1C(=O)N(COP(=O)(Oc2ccccc2)Oc2ccccc2)S(=O)(=O)N1CC1C=CC=C1 (centres undefined) | 4.2e+06 | – | – |
| CCCCOP(=O)(OCCCC)OCN1C(=O)C(CC(C)C)N(C)S1(=O)=O (centres undefined) | 2.7e+06 | – | – |
| COP(=O)(OC)OCN1C(=O)C(CC(C)C)N(CC2C=CC=C2)S1(=O)=O (centres undefined) | 430000 | – | – |
| CC(C)CC1C(=O)N(COP(=O)(OCc2ccccc2)OCc2ccccc2)S(=O)(=O)N1Cc1ccccc1 (centres undefined) | 6e+06 | 120 | 89100 |
| CCCCOP(=O)(OCCCC)OCN1C(=O)C(CC(C)C)CS1(=O)=O (centres undefined) | 82000 | – | – |

— ChEMBL document CHEMBL1130769, “Use of the 1,2,5-thiadiazolidin-3-one 1,1 dioxide and isothiazolidin-3-one 1,1 dioxide scaffolds in the design of potent inhibitors of serine proteinases” (Bioorg Med Chem Lett, 1998)
